From PMC5461506, “Strength of Neisseria meningitidis binding to endothelial cells requires highly-ordered CD147/β2-adrenoceptor clusters assembled by alpha-actinin-4” (Nature Communications, 2017)
No end group written: not given here. *: point of attachment. Biotin = O=C1N[C@H]2[C@H](CS[C@H]2CCCCC(=O)*)N1

Legend:
[1] = tested on: CD147–β2AR complex; experiment: BRET between CD147-Rluc and β2AR-YFP; assay type: cell-based, human; conditions: HEK293 cells
Method: HEK293 cells (2 × 10^5 per well of a 6-well plates) were transfected with 2 ng plasmid DNA coding for the BRET donor (CD147-Luc, CD147ΔD2-Luc) and increasing amounts of BRET acceptor plasmids (β2-YFP, CCR5-YFP; 0–400 ng per well). Twenty-four hours after transfection, cells were resuspended in Hank's balanced salt solution and distributed in 96-well plates (Perkin-Elmer plates; 10^5 cells per well). After addition of the luciferase substrate, coelenterazine h (5 μM final concentration), luminescence at 485 nm and fluorescence at 530 nm were measured simultaneously in a Mithras LB940 Plate Reader. The BRET ratio was calculated as: ((emission at 530 nm/emission at 485 nm)−(background at 530 nm/background at 485 nm)), where background corresponds to signals in cells expressing the Rluc fusion protein alone under the same experimental conditions. For better readability, results were expressed in milli-BRET units (mBRET), 1 mBRET corresponding to the BRET ratio multiplied by 1000. BRET ratios were plotted as a function of ([YFP-YFP0])/(Rluc), where YFP is the fluorescence signal at 530 nm after excitation at 485 nm, and Rluc the signal at 485 nm after addition of coelenterazine h. YFP0 and Rluc0 correspond to the same values in cells expressing the Rluc fusion protein alone. […]

[2] = target: juxta-membrane cytosolic portion of CD44; experiment: Surface plasmon resonance, immobilized CD44 juxta-membrane peptide; assay type: binding; conditions: SPR, non-reducing buffer, BIAcore T200, read-out: dissociation constant (Kd)
Method: (§1) For SPR experiments, the fusion proteins GST-Actn4, GST alone or the GST-FERM domain of ezrin used as a control were diluted either in a non-reducing (PBS, 0.02% Tween-20) or a reducing (10 mM HEPES, 150 mM NaCl, 1 mM EDTA, 1 mM dithiothreitol, 0.005% Tween-20) running buffer. To control the impact of these buffers on the dimerization status of Actn4, Actn4-GST or GST alone as a control (final concentration 100 nM) were incubated for 30 min with 250 μM freshly prepared solution of bissulfosuccinimidyl suberate crosslinker, then separated on SDS–PAGE gels and transferred to nitrocellulose to analyse their electrophoretic migration by immunoblot. Interaction studies between α-Actn4 and CD147 were performed on a BIAcore T200 Instrument (BIAcore Life Sciences, GE Healthcare Europe). Streptavidin-coated sensor chips (Series S sensor chip SA; GE Healthcare) were used to capture a biotinylated peptide encoding the cytosolic sequence of CD147 (Biotin-[…]) or the juxta-membrane region of CD44 (Biotin-NSRRRCGQKKKLVINSG), purchased from Proteogenix, at a flow rate of 5 μl min^−1 in the non-reducing or the reducing running buffer. The density was controlled at an increased response level of 630 and 286 response units (RUs), for CD147 and CD44, respectively depending on molecular weight. […] Output sensorgrams were analysed using the BIAevaluation 4.1.1 Software.

[3] = tested on: cytosolic tail of CD147; experiment: Surface plasmon resonance, immobilized CD147 cytosolic peptide; assay type: binding; conditions: SPR, non-reducing buffer
Method: as §1

[4] = target: T1, recombinant glutathione-S-transferase (GST)–Actn4 fusion protein (human, UniProt O43707 1-911); experiment: SPR; BIAcore T200, biotinylated peptides captured on streptavidin chip (630 RU CD147, 286 RU CD44), GST fusions as analytes, non-reducing buffer (PBS, 0.02% Tween-20), 25 μl/min, 60 s association, 60 s dissociation; conditions: both partners purified
T1 construct: also called Actn4-GST; source: recombinant, purified
T1 sequence (O43707 whole entry, the tested form may be a part): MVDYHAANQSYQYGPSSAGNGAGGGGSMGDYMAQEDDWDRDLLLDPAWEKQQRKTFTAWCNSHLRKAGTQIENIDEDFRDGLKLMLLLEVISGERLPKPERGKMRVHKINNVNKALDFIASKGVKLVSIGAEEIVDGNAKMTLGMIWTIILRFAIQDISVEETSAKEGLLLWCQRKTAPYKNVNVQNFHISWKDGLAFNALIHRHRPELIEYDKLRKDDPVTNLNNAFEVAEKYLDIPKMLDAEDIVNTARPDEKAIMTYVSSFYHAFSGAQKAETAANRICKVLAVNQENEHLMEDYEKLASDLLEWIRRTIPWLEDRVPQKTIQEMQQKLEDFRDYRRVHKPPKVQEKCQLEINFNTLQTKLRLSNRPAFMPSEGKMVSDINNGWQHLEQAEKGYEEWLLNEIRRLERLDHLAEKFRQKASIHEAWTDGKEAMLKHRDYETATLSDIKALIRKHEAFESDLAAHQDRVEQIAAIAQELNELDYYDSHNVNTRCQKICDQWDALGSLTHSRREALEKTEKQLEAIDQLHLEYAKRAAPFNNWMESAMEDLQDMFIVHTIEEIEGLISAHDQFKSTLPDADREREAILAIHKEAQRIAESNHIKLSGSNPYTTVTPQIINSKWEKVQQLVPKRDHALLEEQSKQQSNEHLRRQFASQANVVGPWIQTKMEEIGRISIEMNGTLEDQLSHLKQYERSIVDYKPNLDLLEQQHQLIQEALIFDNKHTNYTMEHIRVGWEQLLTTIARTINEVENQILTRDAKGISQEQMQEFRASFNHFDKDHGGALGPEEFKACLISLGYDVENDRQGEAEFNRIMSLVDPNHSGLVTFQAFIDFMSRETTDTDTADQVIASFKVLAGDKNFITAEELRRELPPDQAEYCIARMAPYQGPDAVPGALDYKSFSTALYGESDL

[5] = target: T2, GST-coupled four-point-one, ezrin, radixin, moesin (FERM) domain of ezrin (human, UniProt P15311 2-296); experiment: as above; conditions: both partners purified
T2 construct: also called GST-FERM domain of ezrin; ezrin FERM domain in fusion with GST
T2 sequence (P15311 2-296): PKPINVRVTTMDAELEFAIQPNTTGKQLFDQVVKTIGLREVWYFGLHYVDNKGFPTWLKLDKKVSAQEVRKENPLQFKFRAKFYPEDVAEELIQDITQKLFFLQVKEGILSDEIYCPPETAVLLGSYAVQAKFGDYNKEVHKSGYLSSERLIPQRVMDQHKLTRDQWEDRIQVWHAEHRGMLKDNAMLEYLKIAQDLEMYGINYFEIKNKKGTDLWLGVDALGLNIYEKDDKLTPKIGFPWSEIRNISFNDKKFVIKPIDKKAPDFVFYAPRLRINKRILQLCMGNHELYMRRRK

[6] = target: T1, recombinant glutathione-S-transferase …; experiment: SPR; BIAcore T200, biotinylated peptide captured on streptavidin chip, GST-Actn4 as analyte, reducing buffer (10 mM HEPES, 150 mM NaCl, 1 mM EDTA, 1 mM dithiothreitol, 0.005% Tween-20); apparent affinity; conditions: both partners purified

CC(C)NCC(O)c1ccc(O)c(O)c1 (centres unmarked) [isoproterenol]
BRET signal between CD147 and β2AR ([1]; 2 ng CD147-Rluc, 20 ng β2AR-YFP, isoproterenol 10 μM, read every 2 min for 20 min, mean±s.e.m., n=3, representative of four experiments): reduced

CC(C)NCC(O)COc1cccc2ccccc12 (centres unmarked) [propranolol]
effect on isoproterenol-induced BRET reduction ([1]; 10 μM isoproterenol in combination with 10 μM propranolol, 20 min): This effect was inhibited

GST-coupled four-point-one, ezrin, radixin, moesin (FERM) domain of ezrin: GST-FERM domain of ezrin used as a control
Kd [2]: 4.3 ± 0.1 nM
interaction with immobilized CD147 peptide [3]: poorly interacted with the CD147 peptide

B1: biotinylated peptide of the juxta-membrane region of CD44 (peptide)
peptide: Biotin-NSRRRCGQKKKLVINSG
notes: also called cytosolic tail of CD44; juxta-membrane cytosolic portion of CD44; source: synthetic peptide, bought: ProteoGenix
Kd [4]: 159 ± 43 nM
Kd [5]: 4.3 ± 0.1 nM

B2: biotinylated peptide encoding the cytosolic sequence of CD147 (peptide)
peptide: Biotin-AYDKRRKPEDVLDDDDAGSAPLKSSGQHQNDKGKNVRQRNSS
notes: also called CD147-CT; CD147 peptide; source: synthetic peptide, bought: ProteoGenix
Kd [4]: 4 ± 0.01 nM
Kd [6]: 44600 ± 32500 nM
